# From patent US4551445A, “Derivatives of arginine vasopressin antagonists” (The Medical College of Ohio, priority 1983, dated 1985)
# Starred links: 1 amine or outer side, 2 acyl side, 3 side chain; linkers in the order of their positions; H or OH if unused. Positions of bridges follow the written chain, without caps; N, C: chain ends. Non-standard residues stand in square brackets, D forms with d. Residues, ends and D or L forms follow the SMILES beside them. X1 = O=C(CC1(S[*:2])CCCCC1)[*:1]; Cha = N[C@@H](CC1CCCCC1)C(=O)O; Orn = NCCC[C@H](N)C(=O)O; Nva = CCC[C@H](N)C(=O)O; Abu = CC[C@H](N)C(=O)O
# Tested on: antidiuretic response to arginine vasopressin (ADH)
# Test: Anti-antidiuretic: antagonism of the antidiuretic response to subsequent injections of vasopressin
# Assay type: in vivo, rats
# Procedure: Activity as antidiuretic agonists was determined by intravenous injection of the compounds being evaluated in ethanol-anesthesized water-loaded rats in accordance with Sawyer, Endocrinology, vol. 63 (1958) at 694. Antagonism of the response to subsequent injections of vasopressin was tested as described by Sawyer et al., Science, vol. 212 (1981) at 49.
# Antagonistic potencies were determined and expressed as "effective doses" and pA2 values. The "effective dose" is defined as the dose (in nanomoles per kilogram) that reduces the response seen from 2x units of agonist injected 20 min after the dose of antagonist to the response with 1x units of agonist. Estimated in vivo "pA2 " values represent the negative logarithms of the effective doses, divided by the estimated volume of distribution (67 ml/kg).
# [1] = Table 2, estimated in vivo pA2, volume of distribution 67 ml/kg
SMILES,Anti-Antidiuretic pA2 [1],"Anti-Antidiuretic pA2 (rat, in vivo)"
CC[C@@H](C)[C@H]1NC(=O)CC2(CCCCC2)SSC[C@@H](C(=O)N2CCC[C@H]2C(=O)N[C@@H](CCCN)C(=O)NCC(N)=O)NC(=O)[C@H](CC(N)=O)NC(=O)[C@H](C(C)C)NC(=O)[C@H](Cc2ccccc2)NC1=O [d(CH2)5 D-Ile^2 Val^4 Orn^8 VP] ([dI]FVNCP[Orn]G-NH2; linker N-5 via X1),7.66,–
"CC[C@@H](C)[C@H]1NC(=O)CC2(CCCCC2)SSC[C@@H](C(=O)N2CCC[C@H]2C(=O)N[C@@H](CCCNC(=N)N)C(=O)NCC(N)=O)NC(=O)[C@H](CC(N)=O)NC(=O)[C@H](CCC(N)=O)NC(=O)[C@H](Cc2ccccc2)NC1=O [d(CH2)5 D-Ile^2 AVP, [1-(β-mercapto-β,β-cyclopentamethylenepropionic acid), 2-D-isoleucine]-arginine vasopressin] ([dI]FQNCPRG-NH2; linker N-5 via X1)",6.96,–
"CC[C@@H](C)[C@H]1NC(=O)CC2(CCCCC2)SSC[C@@H](C(=O)N2CCC[C@H]2C(=O)N[C@@H](CCCNC(=N)N)C(=O)NCC(N)=O)NC(=O)[C@H](CC(N)=O)NC(=O)[C@H]([C@@H](C)CC)NC(=O)[C@H](Cc2ccccc2)NC1=O [d(CH2)5 D-Ile^2 Ile^4 AVP, [1-(β-mercapto-β,β-cyclopentamethylenepropionic acid), 2-D-isoleucine, 4-isoleucine]-arginine vasopressin] ([dI]FINCPRG-NH2; linker N-5 via X1)",8.04,–
"C[C@@H](O)[C@@H]1NC(=O)[C@H](Cc2ccccc2)NC(=O)[C@@H](Cc2ccccc2)NC(=O)CC2(CCCCC2)SSC[C@@H](C(=O)N2CCC[C@H]2C(=O)N[C@@H](CCCNC(=N)N)C(=O)NCC(N)=O)NC(=O)[C@H](CC(N)=O)NC1=O [d(CH2)5 D-Phe^2 Thr^4 AVP, [1-(β-mercapto-β,β-cyclopentamethylenepropionic acid), 2-D-phenylalanine, 4-threonine]-arginine vasopressin] ([dF]FTNCPRG-NH2; linker N-5 via X1)",7.62,–
CC(C)[C@@H]1NC(=O)[C@H](Cc2ccccc2)NC(=O)[C@@H](Cc2ccccc2)NC(=O)CC2(CCCCC2)SSC[C@@H](C(=O)N2CCC[C@H]2C(=O)N[C@@H](CCCNC(=N)N)C(=O)NCC(N)=O)NC(=O)[C@H](CC(N)=O)NC1=O [d(CH2)5 D-Phe^2 VAVP] ([dF]FVNCPRG-NH2; linker N-5 via X1),8.06,–
CCOc1ccc(C[C@@H]2NC(=O)CC3(CCCCC3)SSC[C@@H](C(=O)N3CCC[C@H]3C(=O)N[C@@H](CCCCN)C(=O)NCC(N)=O)NC(=O)[C@H](CC(N)=O)NC(=O)[C@H](C(C)C)NC(=O)[C@H](Cc3ccccc3)NC2=O)cc1 [d(CH2)5 Tyr(Et)^2 Val^4 Lys^8 VP] (Y(Et)FVNCPKG-NH2; linker N-5 via X1),–,7.29
"CC[C@@H](C)[C@H]1NC(=O)CC2(CCCCC2)SSC[C@@H](C(=O)N2CCC[C@H]2C(=O)N[C@@H](CCCNC(=N)N)C(=O)NCC(N)=O)NC(=O)[C@H](CC(N)=O)NC(=O)[C@H](C(C)C)NC(=O)[C@H](Cc2ccccc2)NC1=O [d(CH2)5 D-Ile^2 VAVP, [1-(β-mercapto-β,β-cyclopentamethylenepropionic acid), 2-D-isoleucine, 4-valine]-arginine vasopressin] ([dI]FVNCPRG-NH2; linker N-5 via X1)",7.98,–
"CCC[C@@H]1NC(=O)[C@H](Cc2ccccc2)NC(=O)[C@@H](Cc2ccccc2)NC(=O)CC2(CCCCC2)SSC[C@@H](C(=O)N2CCC[C@H]2C(=O)N[C@@H](CCCNC(=N)N)C(=O)NCC(N)=O)NC(=O)[C@H](CC(N)=O)NC1=O [d(CH2)5 D-Phe^2 Nva^4 AVP, [1-(β-mercapto-β,β-cyclopentamethylenepropionic acid), 2-D-phenylalanine, 4-norvaline]-arginine vasopressin] ([dF]F[Nva]NCPRG-NH2; linker N-5 via X1)",6.99,–
"N=C(N)NCCC[C@H](NC(=O)[C@@H]1CCCN1C(=O)[C@@H]1CSSC2(CCCCC2)CC(=O)N[C@H](Cc2ccccc2)C(=O)N[C@@H](Cc2ccccc2)C(=O)NCC(=O)N[C@@H](CC(N)=O)C(=O)N1)C(=O)NCC(N)=O [d(CH2)5 D-Phe^2 Gly^4 AVP, [1-(β-mercapto-β,β-cyclopentamethylenepropionic acid), 2-D-phenylalanine, 4-glycine]-arginine vasopressin] ([dF]FGNCPRG-NH2; linker N-5 via X1)",5.85,–
"C[C@@H]1NC(=O)[C@H](Cc2ccccc2)NC(=O)[C@@H](Cc2ccccc2)NC(=O)CC2(CCCCC2)SSC[C@@H](C(=O)N2CCC[C@H]2C(=O)N[C@@H](CCCNC(=N)N)C(=O)NCC(N)=O)NC(=O)[C@H](CC(N)=O)NC1=O [d(CH2)5 D-Phe^2 Ala^4 AVP, [1-(β-mercapto-β,β-cyclopentamethylenepropionic acid), 2-D-phenylalanine, 4-alanine]-arginine vasopressin] ([dF]FANCPRG-NH2; linker N-5 via X1)",7.52,–
"CC[C@H](C)[C@@H]1NC(=O)[C@H](Cc2ccccc2)NC(=O)[C@@H](Cc2ccccc2)NC(=O)CC2(CCCCC2)SSC[C@@H](C(=O)N2CCC[C@H]2C(=O)N[C@@H](CCCNC(=N)N)C(=O)NCC(N)=O)NC(=O)[C@H](CC(N)=O)NC1=O [d(CH2)5 D-Phe^2 Ile^4 AVP, [1-(β-mercapto-β,β-cyclopentamethylenepropionic acid), 2-D-phenylalanine, 4-isoleucine]-arginine vasopressin] ([dF]FINCPRG-NH2; linker N-5 via X1)",8.24,–
"CC[C@@H]1NC(=O)[C@H](Cc2ccccc2)NC(=O)[C@@H]([C@H](C)CC)NC(=O)CC2(CCCCC2)SSC[C@@H](C(=O)N2CCC[C@H]2C(=O)N[C@@H](CCCNC(=N)N)C(=O)NCC(N)=O)NC(=O)[C@H](CC(N)=O)NC1=O [d(CH2)5 D-Ile^2 Abu^4 AVP, [1-(β-mercapto-β,β-cyclopentamethylenepropionic acid), 2-D-isoleucine, 4-α-aminobutyric acid]-arginine vasopressin] ([dI]F[Abu]NCPRG-NH2; linker N-5 via X1)",8.22,–
"N=C(N)NCCC[C@H](NC(=O)[C@@H]1CCCN1C(=O)[C@@H]1CSSC2(CCCCC2)CC(=O)N[C@H](Cc2ccccc2)C(=O)N[C@@H](Cc2ccccc2)C(=O)N[C@@H](CC2CCCCC2)C(=O)N[C@@H](CC(N)=O)C(=O)N1)C(=O)NCC(N)=O [d(CH2)5 D-Phe^2 Cha^4 AVP, [1-(β-mercapto-β,β-cyclopentamethylenepropionic acid), 2-D-phenylalanine, 4-cyclohexylalanine]-arginine vasopressin] ([dF]F[Cha]NCPRG-NH2; linker N-5 via X1)",7.19,–
"CC[C@@H](C)[C@H]1NC(=O)CC2(CCCCC2)SSC[C@@H](C(=O)N2CCC[C@H]2C(=O)N[C@@H](CCCNC(=N)N)C(=O)NCC(N)=O)NC(=O)[C@H](CC(N)=O)NC(=O)[C@H](CC(C)C)NC(=O)[C@H](Cc2ccccc2)NC1=O [d(CH2)5 D-Ile^2 Leu^4 AVP, [1-(β-mercapto-β,β-cyclopentamethylenepropionic acid), 2-D-isoleucine, 4-leucine]-arginine vasopressin] ([dI]FLNCPRG-NH2; linker N-5 via X1)",6.80,–
